In one assay the test system is D17. The assay is described as follows: qRT-PCR of D17 gene expression in rice roots after zaxinone treatment. Format: in vivo, rice (Oryza sativa Nipponbare). The following applies: −Pi, 6 h. The procedure: For the analysis of SL transcript levels in the zas mutant, one week-old seedlings were grown hydroponically in half-strength modified Hoagland nutrient solution with K2HPO4·2H2O (+Pi) and without K2HPO4·2H2O (−Pi) for 7 days. Seedlings were further treated with zaxinone for 6 h and tissues were collected.
(§1) Total RNA was extracted from the roots and shoots using a Qiagen Plant RNeasy Kit according to the manufacturer's instruction. cDNA was synthesized from 1 μg of total RNA using iScript cDNA Synthesis Kit (BIO-RAD Laboratories, Inc, 2000 Alfred Nobel Drive, Hercules, CA, Cat. No #170-8890) according to instructions in the user manual. For mycorrhizal samples, single-strand cDNA was synthesized from 1 μg of total RNA using Super-Script II (Invitrogen) according to instructions in the user manual. Primers used for real-time quantitative RT-PCR (qRT-PCR) analysis are listed below in Table 3. qRT-PCR was performed using SYBR Green Master Mix (Applied Biosystems; www.lifetechnologies.com) in a StepOnePlus (Life Technologies, Carlsbad, CA, USA). For mycorrhizal samples, qRT-PCR was performed using a Rotor-Gene Q 5plex HRM Platform (Qiagen). The 2-ΔCt method was used to calculate the relative gene expression levels and rice Ubiquitin (OsUBQ or OsRubQ1) gene was used as the internal control to normalize target gene expression.
14-day-old rice seedlings were transferred to new hydroponic pots containing fresh media with or without chemicals for 6 hours. SL biosynthetic (D27, D10, D17 and MAX1-Os900) gene expression were determined under −Pi conditions (phosphate deficient) with zaxinone (2.5 and 5 μM) treatment of both Nipponbare wild-type (WT) rice roots and zas mutant rice roots. The expression levels (1301) were detected by quantitative RT-PCR. Ubiquitin was used as a reference gene. Mock treatment (control) treatment consisted of 0.1% acetone. Bars (1302) show comparisons between the treatments and represent mean±SD (n=3). Decrease in SLs levels in the plants treated with zaxinone ranged from approximately 40% to 70%.

In the next assay the test system is Zaxinone Synthase (ZAS). The assay is described as follows: qRT-PCR of ZAS transcript levels in rice after zaxinone or GR24. Type of assay: in vivo, rice (Nipponbare). The settings on record: phosphate starvation, 5 μM, 6 h. Here is the method: as §1
FIGS. 14A-14C show transcript levels of Zaxinone Synthase (ZAS) in wild type roots and shoots. In FIG. 14A, the relative expression levels of ZAS under normal (+Pi) and phosphate-starved (−Pi) conditions in Nipponbare wild-type (WT) roots and shoots is seen. The expression levels in the WT root were normalized to 1. In FIG. 14B, the relative expression levels of ZAS under −Pi conditions with 5 μM of Zaxinone and GR24 treatment in WT rice root and shoot is seen. Three weeks-old seedlings were transferred to new hydroponic pots containing fresh media with or without chemicals for 6 h. The expression levels in the WT-mock were normalized to 1 and the expression levels were detected by qRT-PCR. Ubiquitin was used as a reference gene. Bars represent mean±SD (n=3). Mock treatment (0.1% acetone). Different letters above each bar denote significant difference following a One-way ANOVA test (P<0.05).

Data on one molecule can be found in patent publication US11839210B1, “Plant growth promoter with strigolactones regulation activities” (King Abdullah University of Science and Technology, priority 2017, dated 2023).

Consider `CC(=O)/C=C/C=C(C)/C=C/C1=C(C)C[C@@H](O)CC1(C)C` [zaxinone, 3-OH-β-apo-13-carotenone], for which the “decrease of D17 relative expression vs mock” value with D17 (WT rice roots, 2.5 μM zaxinone) is given as “approximately 75%”; in the assay with D17 (WT rice roots, 5.0 μM zaxinone) it was approximately 70%; in the assay on D17 (zas mutant rice roots, 2.5 μM zaxinone) it was “approximately 60%”; in the assay on D17 (zas mutant rice roots, 5.0 μM zaxinone), approximately 68%. Further, the D17 relative expression result is on record as “approximately 0.25” with D17 (WT rice roots, 2.5 μM zaxinone, WT mock approx. 1.0); “approximately 0.3” in the assay with D17 (WT rice roots, 5.0 μM zaxinone, WT mock approx. 1.0); “approximately 1.0” in the assay on D17 (zas mutant rice roots, 2.5 μM zaxinone, zas mock approx. 2.5); “approximately 0.8” with D17 (zas mutant rice roots, 5.0 μM zaxinone, zas mock approx. 2.5). Moreover, the “effect on ZAS transcript levels compared between zaxinone and GR24” value in the assay on Zaxinone Synthase (ZAS) (WT rice root tissues) is “more pronounced effect”. Besides, in the assay with Zaxinone Synthase (ZAS) (WT rice), the “ZAS transcript levels in root tissues” value was “negatively impacted”.
